{"source": "BindingDB's records for doi:10.1016/j.bmcl.2014.09.005", "about": "(Rhône-Poulenc Rorer, 2014)", "data": [{"assay": "Antagonist activity at CRTh2 receptor in human eosinophil assessed as inhibition of PGD2-induced cell shape change", "units": {"IC50": "nM"}, "values": [{"smiles": "CCN(Cc1cc(C(F)(F)F)ccc1-c1cc(CC(=O)O)cc2cnn(C)c12)C(=O)C1CC1", "IC50": 58}, {"smiles": "CCN(Cc1cc(C(F)(F)F)ccc1-c1cc(CC(=O)O)cc2cn(C)nc12)C(=O)C1CC1", "IC50": 43}, {"smiles": "CCN(Cc1cc(C(F)(F)F)ccc1-c1cn(CC(=O)O)c2ccccc12)C(=O)C1CC1", "IC50": 63}, {"smiles": "CCN(Cc1cc(C(F)(F)F)ccc1-c1cn(CC(=O)O)c2cccnc12)C(=O)C1CC1", "IC50": 14}, {"smiles": "CCN(Cc1cc(C(F)(F)F)ccc1-c1cn(CC(=O)O)c2ccncc12)C(=O)C1CC1", "IC50": 8}, {"smiles": "CCN(Cc1cc(C(F)(F)F)ccc1-n1cc(CC(=O)O)c2cccnc21)C(=O)C1CC1", "IC50": 20}, {"smiles": "CCN(Cc1cc(C(F)(F)F)ccc1-c1cc(CC(=O)O)c2ccncn12)C(=O)C1CC1", "IC50": 19}, {"smiles": "CCN(Cc1cc(C(F)(F)F)ccc1-c1nc(CC(=O)O)c2ccccn12)C(=O)C1CC1", "IC50": 94}, {"smiles": "CCN(Cc1cc(C(F)(F)F)ccc1-c1cc(CC(=O)O)ccc1OC)C(=O)C1CC1", "IC50": 13}]}]}
